{
  "source": "patent US20100249138A1",
  "about": "“MPZP: A SMALL MOLECULE CORTICOTROPIN-RELEASING FACTOR TYPE 1 RECEPTOR (CRF1) ANTOGONIST” (priority 2007, published 2010)",
  "key": {"[1]": {"test_system": "cocaine self-administration", "conditions": "cited from earlier work"}, "[2]": {"test_system": "cocaine-induced conditioned place preference", "conditions": "rats; cited from earlier work"}, "CRF1 receptors": {"biological_target": "T1, CRF1 receptors (Rattus norvegicus, UniProt P35353)", "T1 sequence (P35353 24-415)": "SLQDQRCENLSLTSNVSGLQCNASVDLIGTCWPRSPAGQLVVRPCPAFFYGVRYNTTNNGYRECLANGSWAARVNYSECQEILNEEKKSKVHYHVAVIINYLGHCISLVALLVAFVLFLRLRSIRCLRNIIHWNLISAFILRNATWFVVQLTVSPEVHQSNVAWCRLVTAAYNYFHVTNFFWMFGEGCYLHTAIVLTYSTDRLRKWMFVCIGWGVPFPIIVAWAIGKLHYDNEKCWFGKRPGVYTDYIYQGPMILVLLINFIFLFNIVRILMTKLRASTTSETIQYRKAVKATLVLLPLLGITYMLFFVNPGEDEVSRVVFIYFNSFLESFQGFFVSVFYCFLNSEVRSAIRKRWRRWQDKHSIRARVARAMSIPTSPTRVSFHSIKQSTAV", "test": "[125I]-Tyr0-sauvagine competition binding, rat cerebellar membrane homogenates", "set-up": "from tissue; host or cells: rat cerebellum, membrane homogenate", "conditions": "six independent experiments, read-out: PIC50, displacement of specific [125I]-Tyr0-sauvagine binding (converted)", "protocol": "Binding activity of MPZP was determined in a competition assay using […] (2200 Ci/mmol; Perkin Elmer, Waltham, Mass.) as the radioligand. Cerebellum was homogenized in homogenizing buffer (Dulbecco's phosphate-buffered saline [PBS]:1.5 mM KH2PO4, 8.1 mM Na2HPO4, 2.7 mM KCl, 138 mM NaCl, pH 7.2, supplemented with 10 mM MgCl2, 2 mM EGTA) using a Polytron (Dispersing and Mixing Technology, Kinematica, Littau-Lucerne, Switzerland) at setting 6 for 2×15 seconds on ice. The homogenate was centrifuged at 45,000×g for 20 minutes at 4° C. The pellet was resuspended and spun at 45,000×g for 20 minutes at 4° C. The final pellet was resuspended in assay buffer (homogenizing buffer supplemented with protease inhibitor; 1 tablet/10 ml; Sigma CAT#58829-20TAB, St. Louis, Mo., pH 7.4) using a Polytron.\nMed. Chem. (2000) 8:181-189], whose structural formula is shown below.\nTotal binding was determined using assay buffer in lieu of a CRF1 antagonist, and nonspecific binding was determined in the presence of 1 μM unlabeled sauvagine. The final radioligand concentration was 0.2 nM, and the reaction was incubated at room temperature for 2 hours. […] The pellet-containing tip was cut off and counted in an automated 10-detector gamma counter (MicroMedic Apex, ICN Biomedical, Costa Mesa, Calif.) at 80% efficiency. […]"}, "plasma corticosterone": {"test_system": "plasma corticosterone", "conditions": "rats; cited from earlier work"}, "[3]": {"test_system": "rat pituitary corticotropes", "conditions": "cited from earlier work"}, "[4]": {"test_system": "precipitated-withdrawal induced anxiety-like behavior", "test": "Defensive burying test during mecamylamine-precipitated nicotine withdrawal", "assay_type": "in vivo, rat", "conditions": "for Burying / Freezing / Grooming / Latency to bury / Rearing / Resting: Vehicle + Mecamylamine", "protocol": "Nicotine hydrogen tartrate salt (Sigma, Natick) was dissolved in saline at pH 7.4 and experimenter-administered via minipump or self-administered via indwelling jugular catheter. Doses are expressed as free base. Mecamylamine (Sigma; Natick, Mass.) was dissolved in saline and administered i.p. (1 ml/kg). The CRF1 antagonist (N,N-bis(2-methoxyethyl)-3-(4-methoxy-2-methylphenyl)-2,5-dimethyl-pyrazolo-[1,5α]pyrimidin-7-amine, or MPZP) was synthesized at The Scripps Research Institute by Dr. P. Wirshing, dissolved in 20% hydroxypropyl beta-cyclodextrin (Cavitron, Cargill) in isotonic saline at pH 4.5 and administered s.c. (2 ml/kg, 45 to 60 min before testing). Rat/human CRF was supplied by Dr. Jean Rivier, The Salk Institute. CRF was dissolved in 1× PBS (pH 7.4) and prepared fresh few minutes before intracerebral injection. The doses and time of injections were selected based on previous studies [Richardson et al., Program No. 783. 4 Neuroscience Meeting Planner. Atlanta, Ga.: Society for Neuroscience, OnlineI (2006); Specio et al., Program No. 777. 11 Neuroscience Meeting Planner. Washington, D.C.: Society for Neuroscience, Online (2004)].\nRats were subcutaneously implanted with osmotic minipumps delivering either saline (n=33) or nicotine (n=31) (3.16 mg/kg/day, free base, s.c.) as described above. After 14 days of pump exposure, testing was performed 5-8 hours into the dark cycle in a standard cage with 2 inches of bedding (wood shavings) along the bottom and a small hole centered in one side one inch above the bedding to accommodate the shock-probe. Rats were habituated (45 minutes) to the test cage for 2 days prior to testing. On the test day, mecamylamine or its vehicle were administered 30 minutes before behavioral testing, and the CRF1 antagonist or its vehicle were administered 45 minutes before behavioral testing (n=7-9 per group). On contact with the probe and shock delivery (using a Coulbourn precision shocker, 1.5 mA, AC, <1 s), verified by a startle response, the probe was deactivated. The latency and duration of probe-directed burying, rearing, resting, grooming, and freezing were measured from videotape over a 10 minutes period by an experimenter blind to the subject treatment condition using a computer program."}, "[5]": {"test_system": "extracellular CRF-L-IR in the central nucleus of the amygdala", "test": "In vivo microdialysis and radioimmunoassay of CRF-like immunoreactivity in the central nucleus of the amygdala", "set-up": "species or system rat", "conditions": "mecamylamine 1.5 mg/kg i.p.", "protocol": "The changes in interstitial levels of CRF-like-immunoreactivity (CRF-L-IR) in the central nucleus of the amygdala were examined during mecamylamine-precipitated withdrawal (1.5 mg/kg, ip). Rats were subcutaneously implanted with osmotic minipumps (model 2m12, 14 days, 5 μL/hour; Durect Corporation, Palo Alto, Calif.) delivering either saline (non-dependent, n=5) or nicotine (nicotine-dependent, n=7) (3.16 mg/kg/day, free base, s.c.) and a microdialysis guide cannula (SciPro Inc., Sanborn N.Y., USA) stereotaxically positioned 1 mm above the central nucleus of the amygdala using the following coordinates (AP −3.3 mm; ML ±4.2 mm; V −6.5 mm, from dura with flat skull). After 14 days of pump exposure, a microdialysis probe (1 mm PES membrane, 15 kDA MW cutoff; SciPro Inc., Sanborn N.Y., USA) was lowered into the guide cannula and allowed to equilibrate for 12 hours (1 μl/min flow rate, artificial cerebrospinal fluid). […]\nDialysate CRF-like immunoreactivity was quantified with a sensitive and specific solid-phase radioimmunoassay (RIA) adapted from Zorrilla et al. Psychopharmacology (Berl). […] Wells were rinsed, blotted dry and separated, and residual radioactivity was counted by a gamma counter for 5 minutes per well."}, "[6]": {"conditions": "Debruyne et al. 2003; cited from earlier work"}, "[7]": {"test_system": "anxiety-like behavior of naive rats", "test": "Defensive burying test after bilateral CRF infusion in the central nucleus of the amygdala", "assay_type": "in vivo, rat", "conditions": "CRF 30 pmol total dose, bilateral intra-amygdala", "protocol": "To confirm that increases of CRF in the central nucleus of the amygdala elicit anxiety-like behavior, anxiety-like behavior was measured using the defensive burying test, after bilateral infusion of CRF (30 pmol total dose) or vehicle in the central nucleus of the amygdala of naive rats one minute before beginning of the burying test. CRF administered directly into the amygdala increased the time spent burying and decreased the latency to bury during the first 5 minutes after infusion (Table 2),\nRats were anesthetized with an isoflurane-oxygen mixture, and 26-gauge stainless steel guide cannulas (Plastics One, Roanoke, Va.) aimed 2 mm above the central nucleus of the amygdala stereotaxically were implanted bilaterally: AP −2.6 mm; ML ±4.2 mm; V −5.2 mm, from dura, with flat skull (Paxinos and Watson, 1998). The guide cannulas were secured to the skull with dental cement and anchor screws, and guide cannulas were maintained with stylets. Intracerebral injections were administered with the use of injectors (33-gauge; Plastics One) that projected 2 mm past the guide cannula to the central nucleus of the amygdala. The injectors were attached to 70 cm of calibrated polyethylene-20 tubing preloaded with drug solution. This cohort of rats had been extensively handled previously in the context of a food intake study, in which they received administration of a CRF1 receptor antagonist subcutaneously and into the central nucleus of the amygdala in a Latin-square design. A washout period of 7 days was imposed before the present study with all subjects maintained on chow, during which animals were handled daily. Rats were randomly assigned to CRF vs. vehicle conditions balanced for previous diet history, which was statistically unrelated to performance in the defensive burying test. The CRF group (n=5) was infused bilaterally (30 pmol total dose) with a volume of 0.25 μL/side over 30 seconds using Hamilton microsyringes and 2 infusion pumps (Harvard Apparatus, Holliston, Mass.). The control group (n=5) received the same volume of PBS. Injectors were removed from guide cannulae 1 minute after the end of the infusions, and rats were returned to the home cage for 1 minute before being tested in the defensive burying test."}, "[8]": {"conditions": "nicotine-dependent rats, mecamylamine injection"}},
  "note": "Read-outs that look alike come from different tables or passages of the source. No end group written: not given here.",
  "data": [
    {"molecule": "CCCCN(CC)c1nc(C)nc2c1c(C)cn2-c1c(C)cc(C)cc1C", "note": "[CP-154,526]", "values": [
      {"measurement": "cocaine self-administration", "setting": "[1]; 0.5 mg/kg/injection cocaine, rats", "result": "reduced"},
      {"measurement": "cocaine self-administration", "setting": "[1]; rats with limited daily drug access (1 h/day), pretreatment", "result": "dose-dependent decreases"},
      {"measurement": "food-reinforced responding", "setting": "[1]; rats, pretreatment", "result": "does not affect"},
      {"measurement": "cocaine-induced conditioned place preference", "setting": "[2]", "result": "reduced"}
    ]},
    {"molecule": "CCC(CC)Nc1cc(C)nc2c(-c3ccc(OC)cc3C)c(C)nn12", "note": "[DMP904]", "values": [
      {"measurement": "IC50", "setting": "CRF1 receptors", "result": 2.14, "unit": "nM"},
      {"measurement": "stress-induced increase of plasma corticosterone", "setting": "plasma corticosterone", "result": "dose-dependently inhibited"},
      {"measurement": "ACTH release", "setting": "[3]", "result": "inhibited"}
    ]},
    {"molecule": "CNC1(C)C2CCC(C2)C1(C)C", "note": "(centres unmarked) [mecamylamine, reference compound]", "values": [
      {"measurement": "Burying", "setting": "[4]; nicotine pump", "result": "271 ± 46", "unit": "s"},
      {"measurement": "Freezing", "setting": "[4]; nicotine pump", "result": "1 ± 1", "unit": "s"},
      {"measurement": "Grooming", "setting": "[4]; nicotine pump", "result": "16 ± 5", "unit": "s"},
      {"measurement": "Latency to bury", "setting": "[4]; nicotine pump", "result": "31 ± 9", "unit": "s"},
      {"measurement": "Rearing", "setting": "[4]; nicotine pump", "result": "105 ± 25", "unit": "s"},
      {"measurement": "Resting", "setting": "[4]; nicotine pump", "result": "49 ± 21", "unit": "s"},
      {"measurement": "change in latency to bury compared to vehicle injection", "setting": "[4]; [8]", "result": "−70", "unit": "%"},
      {"measurement": "change in time spent burying compared to vehicle injection", "setting": "[4]; [8]", "result": "+243%"},
      {"measurement": "anxiety-like behavior", "setting": "[4]; non-dependent rats, mecamylamine injection", "result": "did not alter"},
      {"measurement": "Burying", "setting": "[4]; saline pump", "result": "135 ± 39", "unit": "s"},
      {"measurement": "Freezing", "setting": "[4]; saline pump", "result": "1 ± 1", "unit": "s"},
      {"measurement": "Grooming", "setting": "[4]; saline pump", "result": "30 ± 12", "unit": "s"},
      {"measurement": "Latency to bury", "setting": "[4]; saline pump", "result": "87 ± 25", "unit": "s"},
      {"measurement": "Rearing", "setting": "[4]; saline pump", "result": "118 ± 14", "unit": "s"},
      {"measurement": "Resting", "setting": "[4]; saline pump", "result": "67 ± 24", "unit": "s"},
      {"measurement": "increase of CRF-L-IR in the central amygdala compared with baseline", "setting": "[5]; nicotine-dependent rats", "result": "over 500%"},
      {"measurement": "increase of CRF-L-IR in the central amygdala", "setting": "[5]; saline-treated (non-dependent) rats", "result": "not observed"},
      {"measurement": "pharmacokinetic half-life", "setting": "[6]", "result": "about 1 hour"}
    ]},
    {"molecule": "CRF: Corticotropin-releasing factor, a 41 amino-acid residue peptide; rat/human CRF infused into the central nucleus of the amygdala (SEEPPISLDLTFHLLREVLEMARAEQLAQQAHSNRKLMEII; ends and bridges not checked; UniProt P06850 154-194, looked up)", "values": [
      {"measurement": "Grooming", "setting": "[7]", "result": "30 ± 27", "unit": "s"},
      {"measurement": "Latency to bury", "setting": "[7]", "result": "165 ± 91", "unit": "s"},
      {"measurement": "Rearing", "setting": "[7]", "result": "91 ± 15", "unit": "s"},
      {"measurement": "Burying", "setting": "[7]; first 5 minutes after infusion", "result": "7.1 ± 4.7", "unit": "s"}
    ]}
  ]
}
